Literature values, collected in patent US20250222014A1, “COMPOSITION FOR LOCALIZED FAT REDUCTION WITHOUT PAIN, EDEMA AND SIDE EFFECTS AND METHOD OF ADMINISTRATION THEREOF” (AMI PHARM CO., LTD., priority 2024, published 2025).

System: adipocytes (3T3L1 adipocytes), normal fibroblasts, vascular endothelial cells and skeletal muscle cells
Conditions: Gupta, Aest Plast Sur, 33:346-352, 2009

For C[C@H](CCC(=O)O)[C@H]1CC[C@H]2[C@@H]3CC[C@@H]4C[C@H](O)CC[C@]4(C)[C@H]3C[C@H](O)[C@]12C [DCA, (4R)-4-[(3R,5R,8R,9S,10S,12S,13R,14S,17R)-3,12-dihydroxy-10,13-dimethyl-2,3,4,5,6,7,8,9,11,12,14,15, 16,17-tetradecahydro-1H-cyclopenta[a]phenanthren-17-yl] pentanoic acid], which “cell lysis selectivity (cell-lytic rather than fat-dissolving)” value is on record?
Its value is “non-selectively dissolves not only adipocytes (3T3L1 adipocytes) but also normal fibroblasts, vascular endothelial cells and skeletal muscle cells”.
